Reference: ChEMBL document CHEMBL4651402, “Screening of ~5500 FDA-approved drugs and clinical candidates for anti-SARS-CoV-2 activity” (2021)

Test system: SARS-CoV-2
Assay: microbe, parasite or virus in culture
Settings: Severe acute respiratory syndrome coronavirus 2, Vero C1008, 48 h

SMILES	IC50 [µM]	IC50 (read-out: pIC50 (converted)) [µM]
C#C[C@]1(O)CCC2C3CCC4=CC(=O)CCC4C3CCC21CC (some centres not stated)	> 20	> 20
CC(=O)OC1CC(OC2C(O)CC(OC3C(O)CC(OC4CCC5(C)C(CCC6C5CC(O)C5(C)C(C7=CC(=O)OC7)CCC65O)C4)OC3C)OC2C)OC(C)C1OC1OC(CO)C(O)C(O)C1O (configuration not stated)	> 20	> 20
CC(C)=CCC[C@@](C)(O)[C@H]1CC=C(C)CC1	> 20	> 20
COCCOCCOCCOCCOC(=O)OC[n+]1ccc(N/C(=N/CCCCCCOc2ccc(Cl)cc2)NC#N)cc1	> 20	> 20
O=C(Nc1ccc(C(=O)N2C[C@H]3COCCN3Cc3ccccc32)c(Cl)c1)c1ccccc1-c1ccccc1	> 20	> 20
CC(C)[C@@H](N)C(=O)O	> 20	> 20
COc1ccc2c(c1)CN(C(=O)CCN1CCC(Cc3ccccc3)CC1)CCS2	> 20	> 20
C[N+](C)(C)NCCC(=O)O	> 20	> 20
CN(C)CCc1c[nH]c2ccccc12	> 20	> 20
CCN(c1ccccc1)c1cc(NC)[n+](C)c(C)n1	> 20	> 20
N=C(N)NCCNS(=O)(=O)c1cccc2cnccc12	> 20	> 20
CCN(CC)CCSC(=O)C(c1ccccc1)c1ccccc1	> 20	> 20
C(#CCN1CCCC1)CN1CCCC1	> 20	> 20
C[C@@H]1CCC[C@H](C)N1	> 20	> 20
Nc1ccc(S(=O)(=O)O)cc1	> 20	> 20
CC(=O)OC1CCC2C3CCc4cc(O)ccc4C3CCC12C (configuration not stated)	> 20	> 20
COc1c(O)cc2c(c1O)C1OC(CO)C(O)C(O)C1OC2=O (configuration not stated)	> 20	> 20
CC(C)NCC(O)c1cc(O)cc(O)c1 (configuration not stated)	> 20	> 20
Nc1nncs1	> 20	> 20
c1ccc2c(c1)CCCc1cc(NCCN3CCOCC3)nnc1-2	> 20	> 20
C[N+]1([O-])[C@@H]2C[C@@H](OC(=O)[C@H](CO)c3ccccc3)C[C@H]1[C@@H]1O[C@@H]12 (some centres not stated)	> 20	> 20

SMILES	IC50 [µM]	IC50 (read-out: pIC50 (converted)) [µM]
COC(=O)CC(O)(CCC(C)(C)O)C(=O)OC1C(OC)=CC23CCCN2CCc2cc4c(cc2C13)OCO4 (configuration not stated)	> 20	> 20
CC1(C(=O)O)CCC2(C)CCC3(C)C(=CC(=O)C4C5(C)CCC(O)C(C)(C)C5CCC43C)C2C1 (configuration not stated)	> 20	> 20
COc1cc2c(cc1OC)C1Cc3ccc(OC)c(OC)c3CN1CC2 (configuration not stated)	> 20	> 20
CC(=O)SCCC(=O)N1C(C)CCCC1C(=O)O (configuration not stated)	> 20	> 20
CC(=O)NS(=O)(=O)c1ccc(NC(=O)c2ccccc2C(=O)O)cc1	> 20	> 20
Cc1cn([C@@H]2C[C@H](O)[C@@H](CO)O2)c(=O)[nH]c1=O	> 20	> 20
O[C@@H](CNC[C@H](O)[C@H]1CCc2cc(F)ccc2O1)[C@@H]1CCc2cc(F)ccc2O1	> 20	> 20
O=c1[nH]c(=O)n(C2CC(O)C(CO)O2)cc1I (configuration not stated)	> 20	> 20
CC(C)c1ccc2c(c1)c(SC(C)(C)C)c(CC(C)(C)C(=O)O)n2Cc1ccc(Cl)cc1	> 20	> 20
CCC(=O)OC1CCC2C3CCC4=CC(=O)CCC4(C)C3CCC12C (configuration not stated)	> 20	> 20
CC(N)C(O)c1cccc(O)c1 (configuration not stated)	> 20	> 20
CC(C)=CCC/C(C)=C/COc1ccc2ccc(=O)oc2c1	> 20	> 20
COc1ccc(-c2ccc(N)[n+](CCCC(=O)O)n2)cc1	> 20	> 20
COc1cccc(-c2cc(=O)c3ccccc3o2)c1N	> 20	> 20
CO/N=C(\C(=O)N[C@@H]1C(=O)N2C(C(=O)O)=C(C[N+]3(C)CCCC3)CS[C@H]12)c1csc(N)n1	> 20	> 20
O[C@](Cn1cncn1)(Cn1cnc(/C=C/c2ccc(OCC(F)(F)C(F)F)cc2)n1)c1ccc(F)cc1F	> 20	> 20
CC(CCC(=O)O)C1CCC2C3C(=O)CC4CC(=O)CCC4(C)C3CC(=O)C12C (configuration not stated)	> 20	> 20
O=C(OCCN1CCCCCC1)C(c1ccsc1)C1CCCCC1 (configuration not stated)	> 20	> 20
C=CCN1CC[C@]23CCCCC2[C@H]1Cc1ccc(O)cc13 (some centres not stated)	> 20	> 20
COc1ccc(CN(C(=O)[C@@H](N)Cc2c(C)cc(C(N)=O)cc2C)[C@H](C)c2nc(-c3ccccc3)c[nH]2)cc1C(=O)O	> 20	> 20
c1cc2c(cc1C1CCCCC1)c1c3n2CCNC3CCC1 (configuration not stated)	> 20	> 20

SMILES	IC50 [µM]	IC50 (read-out: pIC50 (converted)) [µM]
Clc1ccc(OC[C@@H]2CCN2)cn1	> 20	> 20
Nc1c(O)cccc1C(=O)CC(N)C(=O)O (configuration not stated)	> 20	> 20
CCC[C@@H]1C[C@@H](C(=O)N[C@@H]([C@H]2O[C@H](SC)[C@H](O)[C@@H](O)[C@@H]2O)[C@@H](C)O)N(C)C1	> 20	> 20
CC12CCC(=O)C=C1CCC1C3CCC(O)(C(=O)CO)C3(C)CC(O)C12F (configuration not stated)	> 20	> 20
COC1COCCC1N[C@@H]1CC[C@@](C(=O)N2CCc3ncc(C(F)(F)F)cc3C2)(C(C)C)C1 (some centres not stated)	> 20	> 20
CCC(CCC(C)C1CCC2C3CC[C@H]4CC(O)CCC4(C)C3CCC12C)C(C)C (some centres not stated)	> 20	> 20
CCOC(=O)Nc1ccc(SCC2CO[C@](Cn3ccnc3)(c3ccc(Cl)cc3Cl)O2)cc1 (some centres not stated)	> 20	> 20
CC12C=CC(=O)C=C1CCC1C2CCC2(C)C1CC[C@]2(C)O (some centres not stated)	> 20	> 20
CC(C)(C)C(O)(COc1ccc(Cl)cc1)Cn1cncn1 (configuration not stated)	> 20	> 20
C[C@@H]1NC(=O)C2(CCCC2)NC1=O	> 20	> 20
CC12CCC(=O)C=C1C=CC1C2CCC2(C)C1CCC2(O)CCC(=O)O (configuration not stated)	> 20	> 20
CCOC(=O)CN1CCN(C(=O)C=Cc2cc(OC)c(OC)c(OC)c2)CC1	> 20	> 20
CC(C)CCCC(C)C1CCC2C3CC[C@H]4CCCC[C@]4(C)C3CCC12C (some centres not stated)	> 20	> 20
CN(C)S(=O)(=O)c1cc2c(c(Cl)c1Cl)OC(C(=O)O)C2 (configuration not stated)	> 20	> 20
CCC[C@H](c1ccc(C(=O)NCCC(=O)O)cc1)[C@@H](c1ccc(Cl)cc1)c1c[nH]c2c(F)cc(C)cc12	> 20	> 20
COC(=O)[C@H](C)N[P@](=O)(OC[C@H]1O[C@@H](n2cc(/C=C/Br)c(=O)[nH]c2=O)C[C@@H]1O)Oc1ccccc1	> 20	> 20
CN1C(=O)/C(=N/NC(N)=S)c2ccccc21	> 20	> 20
CC12CCC3C(CCC4CC(N)C(O)CC43C)C1CCC2=O (configuration not stated)	> 20	> 20
CC1(C)OC2CC3C4CC(F)C5=CC(=O)C=CC5(C)C4(Cl)C(Cl)CC3(C)C2(C(=O)CCl)O1 (configuration not stated)	> 20	> 20
CC(=O)OC1CCC2(C)C(=CCC3C2CCC2(C)C(O)CCC32)C1 (configuration not stated)	> 20	> 20
C=CCNC1=C2C[C@@H](C)C[C@H](OC)[C@H](O)[C@@H](C)/C=C(/C)[C@H](OC(N)=O)[C@@H](OC)/C=C\C=C(\C)C(=O)NC(=CC1=O)C2=O	> 20	> 20

SMILES	IC50 [µM]	IC50 (read-out: pIC50 (converted)) [µM]
CCC1(O)CC2CN(CCc3c([nH]c4ccccc34)C(C(=O)OC)(c3cc4c(cc3OC)N(C)C3C(O)(C(=O)OC)C(OC(C)=O)C5(CC)C=CCN6CCC43C65)C2)C1 (configuration not stated)	> 20	> 20
CC[C@H]1OC(=O)[C@H](C)[C@@H](O[C@H]2C[C@@](C)(OC)[C@@H](O)[C@H](C)O2)[C@H](C)[C@@H](O[C@@H]2O[C@H](C)C[C@H](N(C)C)[C@H]2O)[C@](C)(O)C[C@@H](C)C(=O)[C@H](C)[C@H]2OC(=O)O[C@@]21C	> 20	> 20
CC12C=CC(=O)C=C1[C@@H](F)CC1C2C(O)CC2(C)C1CCC2(O)C(=O)CO (some centres not stated)	> 20	> 20
CC[C@@H](C)n1ncn(-c2ccc(N3CCN(c4ccc(OC[C@H]5CO[C@@](Cn6cncn6)(c6ccc(F)cc6F)O5)cc4)CC3)cc2)c1=O	> 20	> 20
CCCCCC(=O)CCC1(C)C2Cc3ccc(O)cc3C1(C)CCN2C (configuration not stated)	> 20	> 20
COC1C(C)OC(OC2C=C3CCC4C(CCC5(C)C(c6ccc(=O)oc6)CCC45O)C3(C)CC2)C(O)C1O (configuration not stated)	> 20	> 20
CO[C@H]1/C=C\O[C@@]2(C)Oc3c(C)c(O)c4c(=O)c(c5oc6cc(N7CCN(CC(C)C)CC7)cc(O)c6nc-5c4c3C2=O)NC(=O)/C(C)=C\C=C/[C@H](C)[C@H](O)[C@@H](C)[C@@H](O)[C@@H](C)[C@H](OC(C)=O)[C@@H]1C	> 20	> 20
CC1CC(OC(=O)c2ccccc2)CC(C)(C)N1 (configuration not stated)	> 20	> 20
O=C(O)C(=O)Cc1c[nH]c2ccccc12	> 20	> 20
C/C=C1/C[C@@H](C)[C@](O)(CO)C(=O)OCC2=CCN3CC[C@@H](OC1=O)[C@@H]23	> 20	> 20
Cc1c(-c2cccnc2)n(CCCCCCCC(=O)O)c2ccccc12	> 20	> 20
Cc1cc(O)cc(=O)o1	> 20	> 20
CCc1c(C(=O)c2cc(C)cc(C)c2)n(CC2CC=CC2)c(=O)[nH]c1=O	> 20	> 20
COc1ccccc1-c1coc2cc(O)ccc2c1=O	> 20	> 20
COc1cc2c(cc1OC)[C@H]1CC(=O)[C@H](CC(C)C)CN1CC2	> 20	> 20
C[C@@H](N)C(=O)N[C@@H](Cc1ccccc1)C(=O)O	> 20	> 20
CCN(CC)C(=S)SSC(=S)N(CC)CC	> 20	> 20
COc1ccccc1N1CCNCC1	> 20	> 20
